Among the test systems are OVCAR-4 ovarian; EKVX NSCLC; UACC-257 melanoma; SK-MEL-2 melanoma; NCI-H460 lung; MDA-MB-231 breast; LOX IMVI melanoma; SF-539 CNS; COLO 205 colon; NCI-H226 lung.
Common to all, as to assay: NCI tumour cell line growth inhibition, 48 h

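Each compound was tested at five concentrations against cells in 96-well plates for 48 hours. GI50: concentration for 50% inhibition of growth. TGI denotes the concentration required for complete inhibition of growth.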

For the compound `CC12OC(C(=O)C13CCC3)C1C(=O)c3c(O)ccc(O)c3C(=O)C12` (stereo not drawn), the GI50 is 4.06 µM in the assay on OVCAR-4 ovarian; 9.34 µM in the assay with EKVX NSCLC; 1.53 µM with UACC-257 melanoma; 14.1 µM with SK-MEL-2 melanoma; 7.46 µM in the assay with NCI-H460 lung; 2.41 µM in the assay with MDA-MB-231 breast. The GI50 with LOX IMVI melanoma was 2.33 µM; in the assay on SF-539 CNS, 2.99 µM; with COLO 205 colon, 3.14 µM; in the assay with NCI-H226 lung, more than 100 µM. The TGI was more than 100 µM in the assay on OVCAR-4 ovarian; 22.7 µM in the assay on EKVX NSCLC; 7.81 µM in the assay on UACC-257 melanoma; more than 100 µM in the assay with SK-MEL-2 melanoma; 29.3 µM in the assay with NCI-H460 lung; 7.47 µM with MDA-MB-231 breast. In addition, the TGI is more than 100 µM in the assay on LOX IMVI melanoma, 15.8 µM with SF-539 CNS, more than 100 µM with COLO 205 colon and more than 100 µM in the assay with NCI-H226 lung.

For `CN(CCN1C(=O)c2cccc3cccc(c23)C1=O)CCN1C(=O)c2cccc3cccc(c23)C1=O`, the TGI was more than 100 µM with OVCAR-4 ovarian; more than 100 µM with EKVX NSCLC; more than 100 µM in the assay on UACC-257 melanoma; more than 100 µM in the assay with SK-MEL-2 melanoma; more than 100 µM with NCI-H460 lung; 33.6 µM in the assay with MDA-MB-231 breast. Also, the TGI was more than 100 µM in the assay on LOX IMVI melanoma, more than 100 µM with SF-539 CNS, 16.5 µM in the assay with COLO 205 colon and 75.2 µM in the assay on NCI-H226 lung.

Turning to `CC(CCCCNC(=O)OC(C)(C)C)NC(=O)NC(C)CCCCNC(=O)OC(C)(C)C` (stereo not drawn), the TGI in the assay with OVCAR-4 ovarian, with EKVX NSCLC, in the assay with UACC-257 melanoma, with NCI-H460 lung, with MDA-MB-231 breast and in the assay with LOX IMVI melanoma was more than 100 µM each time. Moreover, the TGI in the assay with COLO 205 colon and with NCI-H226 lung was more than 100 µM each time.

Turning to `CC(NC(=O)c1ccc(OP(=O)(OCc2ccc([N+](=O)[O-])o2)N(C)CCCCCl)cc1)c1ccc(OCC2CCCCC2)c(C(N)=O)c1` (stereo not drawn), the TGI with OVCAR-4 ovarian was 17.7 µM; in the assay on EKVX NSCLC, more than 100 µM; in the assay on UACC-257 melanoma, more than 39.8 µM; with SK-MEL-2 melanoma, 14.5 µM; in the assay on NCI-H460 lung it was 14.5 µM; with MDA-MB-231 breast, 9.66 µM. Also, the TGI in the assay with LOX IMVI melanoma turned out to be 5.43 µM; in the assay with SF-539 CNS it was 10.1 µM; with COLO 205 colon, 6.24 µM; with NCI-H226 lung, 26.2 µM.

`CCCC(=O)Nc1cc(/C=C/C(=O)N2CC(CCl)c3c2cc(OC(C)=O)c2[nH]cc(C)c32)n(C)c1` (stereo not drawn): the TGI is 0.0213 µM in the assay with OVCAR-4 ovarian; 0.00665 µM with EKVX NSCLC; 0.000121 µM in the assay on SK-MEL-2 melanoma; 0.000419 µM in the assay with NCI-H460 lung; more than 0.25 µM with MDA-MB-231 breast; more than 0.25 µM in the assay with LOX IMVI melanoma. For the same compound, the TGI in the assay on SF-539 CNS was 0.000107 µM; in the assay with COLO 205 colon, 4.32e-05 µM; in the assay with NCI-H226 lung, 0.000748 µM.

Consider `CCOC(=O)c1cccc(N=Nc2ncc(/C=C/C(=O)OC)[nH]2)c1`, for which the TGI in the assay with OVCAR-4 ovarian was more than 100 µM; with EKVX NSCLC, more than 100 µM; in the assay on UACC-257 melanoma, 46.4 µM; in the assay on SK-MEL-2 melanoma, more than 100 µM; with NCI-H460 lung it was 34.5 µM; in the assay on MDA-MB-231 breast, more than 100 µM. For the same compound, the TGI was 51 µM in the assay with LOX IMVI melanoma, more than 100 µM with SF-539 CNS, 49 µM in the assay with COLO 205 colon and more than 100 µM in the assay with NCI-H226 lung.

`O=C1/C(=C/c2ccc([N+](=O)[O-])cc2)Sc2scc(-c3cccc([N+](=O)[O-])c3)[n+]21`: the TGI worked out at 31.4 µM in the assay with OVCAR-4 ovarian; 25 µM in the assay with EKVX NSCLC; 18.4 µM in the assay on UACC-257 melanoma; 30.8 µM in the assay on SK-MEL-2 melanoma; 26.1 µM in the assay on NCI-H460 lung; 16.5 µM with MDA-MB-231 breast. Also, the TGI amounted to 8.03 µM in the assay with LOX IMVI melanoma, 6.44 µM in the assay with SF-539 CNS, 3.69 µM with COLO 205 colon and 29.9 µM in the assay on NCI-H226 lung.

As for `CN(CCCNC(=O)c1nn(-c2ccccc2)c2c1Cc1ccccc1-2)CCCNC(=O)c1nn(-c2ccccc2)c2c1Cc1ccccc1-2`, the TGI with OVCAR-4 ovarian amounted to 1.85 µM; with UACC-257 melanoma, 3.28 µM; with SK-MEL-2 melanoma, 2.69 µM; with NCI-H460 lung, 3.26 µM; in the assay on MDA-MB-231 breast it was 2.99 µM; with SF-539 CNS, 2.97 µM. Besides, in the assay on COLO 205 colon, the TGI stood at 2.8 µM.

For the compound `CC(C)C(=O)CC(c1ccc(Br)cc1)N1N=C(C(C)C)CC1c1ccc(Br)cc1` (stereo not drawn), the TGI in the assay on OVCAR-4 ovarian, in the assay on EKVX NSCLC, in the assay on SK-MEL-2 melanoma, in the assay on NCI-H460 lung, with LOX IMVI melanoma and in the assay on SF-539 CNS was more than 100 µM in each case. In addition, the TGI in the assay on COLO 205 colon and in the assay on NCI-H226 lung was more than 100 µM each time.

On to `COc1cc(/C=C2\CC3C4CC[C@H]5C[C@@H](O)CC[C@]5(C)C4CC[C@]3(C)\C2=N\O)cc(OC)c1OC` (stereo partly drawn), for which the TGI is 37.9 µM with OVCAR-4 ovarian; more than 100 µM with EKVX NSCLC; 56.7 µM with UACC-257 melanoma; 31.7 µM in the assay on SK-MEL-2 melanoma; 82.9 µM with NCI-H460 lung; 59.7 µM in the assay on MDA-MB-231 breast. Besides, the TGI in the assay on LOX IMVI melanoma worked out at 64.2 µM; in the assay with SF-539 CNS, 34.1 µM; with COLO 205 colon, 29.4 µM; in the assay on NCI-H226 lung, 45.1 µM.

As for `CC(C)(C)COS(=O)OCC(C)(C)C`, the TGI in the assay on OVCAR-4 ovarian, in the assay on EKVX NSCLC, with UACC-257 melanoma, in the assay with SK-MEL-2 melanoma, in the assay on NCI-H460 lung and with MDA-MB-231 breast was more than 100 µM each time. The TGI in the assay with LOX IMVI melanoma, in the assay with SF-539 CNS, in the assay on COLO 205 colon and in the assay with NCI-H226 lung was more than 100 µM throughout.

`CC1(C)CC(C(=O)OCCCCCCCCCCC[P+](c2ccccc2)(c2ccccc2)c2ccccc2)C(C)(C)N1O` (stereo not drawn): the GI50 with OVCAR-4 ovarian was 0.249 µM; in the assay with UACC-257 melanoma it was 0.248 µM; in the assay with MDA-MB-231 breast, 0.252 µM; with LOX IMVI melanoma, 0.207 µM; in the assay on SF-539 CNS, 0.324 µM; with COLO 205 colon, 0.168 µM. Further, the TGI with OVCAR-4 ovarian amounted to 1.4 µM; in the assay on UACC-257 melanoma, 0.847 µM; in the assay with MDA-MB-231 breast it was 0.849 µM; with LOX IMVI melanoma, 1.05 µM; in the assay on SF-539 CNS it was 1.28 µM; with COLO 205 colon it was 0.33 µM.

With `Oc1ccc(Cl)cc1C1=Nn2c(COc3ccc4c(c3)CCCC4)nnc2SC1`, the TGI with OVCAR-4 ovarian was determined as 13.8 µM; in the assay on EKVX NSCLC it was 34.7 µM; in the assay on UACC-257 melanoma it was 35.6 µM; with SK-MEL-2 melanoma, 31.1 µM; in the assay with NCI-H460 lung it was 30.9 µM; in the assay on MDA-MB-231 breast, 34.2 µM. The results for the TGI in the assay on LOX IMVI melanoma, in the assay on SF-539 CNS and in the assay with COLO 205 colon were 29.3 µM, 33.4 µM and 31.3 µM, respectively.

These data come from PubChem BioAssay (NCI).
